A short description of one data set: in vitro. Particulars: for stability in reaction mixture with human serum: Experiment VIII, 10^−7 M, 37° C., 4 hours after the beginning of reaction. The protocol: The stabilities of the AM analog peptides in serum were evaluated with the same procedure as in Experiment I except the following procedure. […] A reaction mixture containing 4 μL of phosphate buffer, 20 μL of human serum (Sigma-Aldrich Co. LLC, USA), and 14 μL of water was prepared. To the reaction mixture, 2 μL of AM or an AM analog peptide (2×10^−6 M, final concentration: 10^−7 M) was added, and reaction was initiated at 37° C. The reaction was terminated by addition of 160 μL of ELISA buffer to the reaction mixture 0, 1, or 4 hours after the beginning of reaction. […] In the figure, the abscissa represents reaction time (hr), and the ordinate represents concentration in serum of AM or an AM analog (%) represented as relative values to concentration of AM or an AM analog at the beginning of reaction (i.e., 0 hours after the beginning of reaction).

Data set [1] addresses T1, AM type 1 receptor (AMI receptor) (Homo sapiens, UniProt O60895+Q16602).
T1 construct: expressed in transfected cells; medium contains hygromycin B and Geneticin
Kind of data set: Intracellular cAMP production in HEK293 cells stably expressing AM type 1 receptor (Experiments V and IX). Type of data set: cell-based. Particulars: for intracellular cAMP concentration-increasing activity: Experiment IX, addition at 10^−9 M or 10^−8 M, HEK293 cells. From the text: The adrenomedullin activity exerted by AM, shown above with examples, will be exerted via increased concentration of intracellular cAMP in normal cases. Thus, the increased concentration of intracellular cAMP can be considered as an index of the adrenomedullin activity of the compound according to the aspect. In each aspect of the invention, the effect of increasing concentration of intracellular cAMP can be evaluated, for example, by adding a target compound to a cultured cell line (HEK293 cell line) caused to stably express an AM type 1 receptor (AMI receptor) and measuring the amount of intracellular cAMP produced.
The physiological effect of AM is known to be exerted via increase in the concentration of intracellular cAMP (see Kitamura K et al., Biochem Biophys Res Commun, 30 Apr. 1993, Volume 192, Issue 2, pp. 553-560). Accordingly, each AM analog was added to a cultured cell line (HEK293 cell line) caused to stably express an AM type 1 receptor (AMI receptor), and the amount of intracellular cAMP produced was measured. HEK293 cells were cultured in Dulbecco's modified Eagle's medium (with 10% fetal bovine serum, 100 U/ml penicillin G, […] streptomycin, 0.25 mg/ml amphotericin B, […] hygromycin B, and […] Geneticin) in a fibronectin-coated 24-well plate (Thermo Fisher Scientific) (under 37° C., humidified, 5% CO2 conditions). After culturing for 3 days, 90%-confluent cells with accumulation of intracellular cAMP stimulated were subjected to experiment. The medium was exchanged with Hanks's balanced salt solution containing 20 mM 4-(2-hydroxyethyl)-1-piperazineethanesulfonic acid and 0.1% bovine serum albumin, AM or an AM analog was added to the cells in the presence of 0.5 mM isobutylmethylxanthine (IBMX), and the cells were incubated at 37° C. for 15 minutes. The reaction was terminated by addition of cell lysis buffer. Then, the amount of intracellular cAMP produced in the HEK293 cells of each well was measured using an ELISA kit for cAMP measurement (GE Healthcare Japan Corp., #RPN2251). […] In the figure, the abscissa represents logarithms of concentration of AM or an AM analog added (M), and the ordinate represents amounts of intracellular cAMP produced in HEK293 cells stably expressing an AMI receptor (fmol/well).
In the figure, the abscissa represents logarithms of concentration of AM or an AM analog added (M), and the ordinate represents amounts of intracellular cAMP produced in HEK293 cells stably expressing an AMI receptor (fmol/ml).
For orientation: Changes in cAMP serve as a functional read-out for many G protein-coupled receptors.

The nature of the next data set: in vivo. Particulars: for detection in rat plasma after subcutaneous administration: 50 nmol/kg subcutaneous, Experiment X; for Cmax: male, Wistar, rat, in vivo, sc, 50 nmol/kg. The procedure: Seven-week-old male Wistar rats were prepared, and grown with normal feeds. To determine plasma AM concentrations, 50 nmol/kg of AM or an AM analog was subcutaneously administered. A peripheral blood sample was collected from the tail vein into a Kantan tube® (containing heparin Na, Eiken Chemical Co., Ltd., Tochigi, Japan) at predetermined times (0, 15, 30, 60, and 120 minutes after administration). The tube was centrifuged at 2,000×g. Plasma was collected from the tube, and transferred into a test tube (containing 21 μg of aprotinin and 0.3 mg of EDTA-2Na) and stored. […] In the figure, the abscissa represents elapsed time after subcutaneous administration (hr), and the ordinate represents concentration in plasma of AM or an AM analog (pM). In addition, maximum concentrations in blood (Cmax) of AM or the AM analogs in rat plasma after subcutaneous administration were calculated.

Molecules are shown by their SMILES. Where a SMILES comes first, the peptide text is derived from it. Bridges are numbered along the chain shown (N, C = ends).

T1 sequence (Q16602 23-461): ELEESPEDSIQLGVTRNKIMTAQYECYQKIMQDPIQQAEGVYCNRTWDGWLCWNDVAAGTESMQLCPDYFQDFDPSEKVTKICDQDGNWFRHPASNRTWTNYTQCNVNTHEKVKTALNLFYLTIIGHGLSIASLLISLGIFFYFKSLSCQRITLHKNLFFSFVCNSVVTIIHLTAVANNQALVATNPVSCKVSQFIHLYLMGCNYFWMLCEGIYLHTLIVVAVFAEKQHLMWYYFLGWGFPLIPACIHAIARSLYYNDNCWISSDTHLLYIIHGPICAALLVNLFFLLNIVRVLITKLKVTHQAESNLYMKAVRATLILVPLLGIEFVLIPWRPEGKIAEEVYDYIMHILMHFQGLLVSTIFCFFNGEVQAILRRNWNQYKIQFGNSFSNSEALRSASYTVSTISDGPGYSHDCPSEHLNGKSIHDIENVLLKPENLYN
T1 sequence (O60895 43-175): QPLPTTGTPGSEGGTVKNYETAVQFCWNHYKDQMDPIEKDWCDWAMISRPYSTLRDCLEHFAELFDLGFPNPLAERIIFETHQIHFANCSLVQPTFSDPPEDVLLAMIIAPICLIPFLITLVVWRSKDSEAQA

For `CC[C@H](C)[C@H](NC(=O)[C@H](CCC(N)=O)NC(=O)[C@H](Cc1c[nH]cn1)NC(=O)[C@H](C)NC(=O)[C@H](CC(C)C)NC(=O)[C@H](CCCCN)NC(=O)[C@H](CCC(N)=O)NC(=O)[C@@H](NC(=O)[C@@H](NC(=O)[C@@H]1CSSC[C@H](NC(=O)CNC(=O)[C@H](Cc2ccccc2)NC(=O)[C@@H](N)CO)C(=O)N[C@@H](CCCNC(=N)N)C(=O)N[C@@H](Cc2ccccc2)C(=O)NCC(=O)N[C@@H]([C@@H](C)O)C(=O)N1)[C@@H](C)O)C(C)C)C(=O)N[C@@H](Cc1ccc(O)cc1)C(=O)N[C@@H](CCC(N)=O)C(=O)N[C@@H](Cc1ccccc1)C(=O)N[C@H](C(=O)N[C@@H](CC(=O)O)C(=O)N[C@@H](CCCCN)C(=O)N[C@@H](CC(=O)O)C(=O)N[C@@H](CCCCN)C(=O)N[C@@H](CC(=O)O)C(=O)N[C@@H](CC(N)=O)C(=O)N[C@H](C(=O)N[C@@H](C)C(=O)N1CCC[C@H]1C(=O)N[C@@H](Cc1ccccc1)C(=O)N[C@@H](CO)C(=O)N[C@@H](CCCCN)C(=O)N[C@H](C(=O)N[C@@H](CO)C(=O)N1CCC[C@H]1C(=O)N[C@@H](CCC(N)=O)C(=O)NCC(=O)N[C@@H](Cc1ccc(O)cc1)C(N)=O)[C@@H](C)CC)C(C)C)[C@@H](C)O` [[Phe-44]hAM(13-52), SFGCRFGTCTVQKLAHQIYQFTDKDKDNVAPFSKISPQGY-CONH2] (H-SFGCRFGTCTVQKLAHQIYQFTDKDKDNVAPFSKISPQGY-NH2; disulfide 4-9), the “stability in reaction mixture with human serum” value (“stability in reaction mixture” for short) in the data set “in vitro” is listed as “stable”. For the same molecule, in data set [1], the concentration for a half-maximal effect (EC50) was 5.13 nM and the “intracellular cAMP concentration-increasing activity” value is “approximately equivalent to that of hAM(1-52) or hAM(13-52)”. Also, in the data set “in vivo”, the “detection in rat plasma after subcutaneous administration” value is “detected in rat plasma 15 minutes after administration” and the highest level (Cmax) was 0.323 nM.

In the case of `CC[C@H](C)[C@H](NC(=O)[C@H](CCC(N)=O)NC(=O)[C@H](Cc1c[nH]cn1)NC(=O)[C@H](C)NC(=O)[C@H](CC(C)C)NC(=O)[C@H](CCCCN)NC(=O)[C@H](CCC(N)=O)NC(=O)[C@@H](NC(=O)[C@@H](NC(=O)[C@@H]1CSSC[C@H](NC(=O)CNC(=O)[C@H](Cc2ccccc2)NC(=O)[C@@H](N)CO)C(=O)N[C@@H](CCCNC(=N)N)C(=O)N[C@@H](Cc2ccccc2)C(=O)NCC(=O)N[C@@H]([C@@H](C)O)C(=O)N1)[C@@H](C)O)C(C)C)C(=O)N[C@@H](Cc1ccc(O)cc1)C(=O)N[C@@H](CCC(N)=O)C(=O)N[C@@H](Cc1ccccc1)C(=O)N[C@H](C(=O)N[C@@H](CC(=O)O)C(=O)N[C@@H](CCCCN)C(=O)N[C@@H](CC(=O)O)C(=O)N[C@@H](CCCCN)C(=O)N[C@@H](CC(=O)O)C(=O)N[C@@H](CC(N)=O)C(=O)N[C@H](C(=O)N[C@@H](C)C(=O)N1CCC[C@H]1C(=O)NCC(=O)N[C@@H](CO)C(=O)N[C@@H](CCCCN)C(=O)N[C@H](C(=O)N[C@@H](CO)C(=O)N1CCC[C@H]1C(=O)N[C@@H](CCC(N)=O)C(=O)NCC(=O)N[C@@H](Cc1ccc(O)cc1)C(N)=O)[C@@H](C)CC)C(C)C)[C@@H](C)O` [[Gly-44]hAM(13-52), SFGCRFGTCTVQKLAHQIYQFTDKDKDNVAPGSKISPQGY-CONH2] (H-SFGCRFGTCTVQKLAHQIYQFTDKDKDNVAPGSKISPQGY-NH2; disulfide 4-9), the “stability in reaction mixture” value in the data set “in vitro” is “stable”. Besides, in data set [1], the response was half-maximal at 11 nM (EC50) and the “intracellular cAMP concentration-increasing activity” value is “approximately equivalent to that of hAM(1-52) or hAM(13-52)”. In the data set “in vivo”, the “detection in rat plasma after subcutaneous administration” value was “detected in rat plasma 15 minutes after administration” and the highest level (Cmax) was 0.76 nM.

`CC[C@H](C)[C@H](NC(=O)[C@H](CCC(N)=O)NC(=O)[C@H](Cc1c[nH]cn1)NC(=O)[C@H](C)NC(=O)[C@H](CC(C)C)NC(=O)[C@H](CCCCN)NC(=O)[C@H](CCC(N)=O)NC(=O)[C@@H](NC(=O)[C@@H](NC(=O)[C@@H]1CSSC[C@H](NC(=O)CNC(=O)[C@H](Cc2ccccc2)NC(=O)[C@@H](N)CO)C(=O)N[C@@H](CCCNC(=N)N)C(=O)N[C@@H](Cc2ccccc2)C(=O)NCC(=O)N[C@@H]([C@@H](C)O)C(=O)N1)[C@@H](C)O)C(C)C)C(=O)N[C@@H](Cc1ccc(O)cc1)C(=O)N[C@@H](CCC(N)=O)C(=O)N[C@@H](Cc1ccccc1)C(=O)N[C@H](C(=O)N[C@@H](CC(=O)O)C(=O)N[C@@H](CCCCN)C(=O)N[C@@H](CC(=O)O)C(=O)N[C@@H](CCCCN)C(=O)N[C@@H](CC(=O)O)C(=O)N[C@@H](CC(N)=O)C(=O)N[C@H](C(=O)N[C@@H](C)C(=O)N1CCC[C@H]1C(=O)N[C@@H](CC(=O)O)C(=O)N[C@@H](CO)C(=O)N[C@@H](CCCCN)C(=O)N[C@H](C(=O)N[C@@H](CO)C(=O)N1CCC[C@H]1C(=O)N[C@@H](CCC(N)=O)C(=O)NCC(=O)N[C@@H](Cc1ccc(O)cc1)C(N)=O)[C@@H](C)CC)C(C)C)[C@@H](C)O` [[Asp-44]hAM(13-52), SFGCRFGTCTVQKLAHQIYQFTDKDKDNVAPDSKISPQGY-CONH2] (H-SFGCRFGTCTVQKLAHQIYQFTDKDKDNVAPDSKISPQGY-NH2; disulfide 4-9): the “stability in reaction mixture” value in “in vitro” is “stable”.

In turn, `CC[C@H](C)[C@H](NC(=O)[C@H](CCC(N)=O)NC(=O)[C@H](Cc1c[nH]cn1)NC(=O)[C@H](C)NC(=O)[C@H](CC(C)C)NC(=O)[C@H](CCCCN)NC(=O)[C@H](CCC(N)=O)NC(=O)[C@@H](NC(=O)[C@@H](NC(=O)[C@@H]1CSSC[C@H](NC(=O)CNC(=O)[C@H](Cc2ccccc2)NC(=O)[C@@H](N)CO)C(=O)N[C@@H](CCCNC(=N)N)C(=O)N[C@@H](Cc2ccccc2)C(=O)NCC(=O)N[C@@H]([C@@H](C)O)C(=O)N1)[C@@H](C)O)C(C)C)C(=O)N[C@@H](Cc1ccc(O)cc1)C(=O)N[C@@H](CCC(N)=O)C(=O)N[C@@H](Cc1ccccc1)C(=O)N[C@H](C(=O)N[C@@H](CC(=O)O)C(=O)N[C@@H](CCCCN)C(=O)N[C@@H](CC(=O)O)C(=O)N[C@@H](CCCCN)C(=O)N[C@@H](CC(=O)O)C(=O)N[C@@H](CC(N)=O)C(=O)N[C@H](C(=O)N[C@@H](C)C(=O)N1CCC[C@H]1C(=O)N[C@@H](CCCNC(=N)N)C(=O)N1CCC[C@H]1C(=O)N[C@@H](CCCCN)C(=O)N[C@H](C(=O)N[C@@H](CO)C(=O)N1CCC[C@H]1C(=O)N[C@@H](CCC(N)=O)C(=O)NCC(=O)N[C@@H](Cc1ccc(O)cc1)C(N)=O)[C@@H](C)CC)C(C)C)[C@@H](C)O` [[Pro-45]hAM(13-52), SFGCRFGTCTVQKLAHQIYQFTDKDKDNVAPRPKISPQGY-CONH2] (H-SFGCRFGTCTVQKLAHQIYQFTDKDKDNVAPRPKISPQGY-NH2; disulfide 4-9) gave an amount remaining at 4 h in “in vitro” (human, serum) of about 60%.

One may read the EC50 as the concentration needed to bring the measured effect to its halfway point. The low end stands for an effect from little substance, the high end for a need for much substance. As usually defined, the Cmax is the highest concentration seen after dosing. For orientation: amount remaining means what is left of the initial amount, in per cent.
